Measurements: patent publication US11739098B2 (BRISTOL-MYERS SQUIBB COMPANY, priority 2017, dated 2023)
pIC50: −log10 of the molar value.

Legend:
Type in all cases: cell-based
human TLR7 = molecular target: T1, human TLR7 (Homo sapiens, UniProt Q9NYK1); assay: TLR7 inhibition reporter assay (HEK-Blue cells, SEAP reporter, gardiquimod stimulation); conditions: HEK-Blue cells overexpressing human TLR7, SEAP reporter, gardiquimod 7.5 μM
T1 construct: host or cells: HEK-Blue cells (HEK293-derived reporter line)
T1 sequence (Q9NYK1 27-1049): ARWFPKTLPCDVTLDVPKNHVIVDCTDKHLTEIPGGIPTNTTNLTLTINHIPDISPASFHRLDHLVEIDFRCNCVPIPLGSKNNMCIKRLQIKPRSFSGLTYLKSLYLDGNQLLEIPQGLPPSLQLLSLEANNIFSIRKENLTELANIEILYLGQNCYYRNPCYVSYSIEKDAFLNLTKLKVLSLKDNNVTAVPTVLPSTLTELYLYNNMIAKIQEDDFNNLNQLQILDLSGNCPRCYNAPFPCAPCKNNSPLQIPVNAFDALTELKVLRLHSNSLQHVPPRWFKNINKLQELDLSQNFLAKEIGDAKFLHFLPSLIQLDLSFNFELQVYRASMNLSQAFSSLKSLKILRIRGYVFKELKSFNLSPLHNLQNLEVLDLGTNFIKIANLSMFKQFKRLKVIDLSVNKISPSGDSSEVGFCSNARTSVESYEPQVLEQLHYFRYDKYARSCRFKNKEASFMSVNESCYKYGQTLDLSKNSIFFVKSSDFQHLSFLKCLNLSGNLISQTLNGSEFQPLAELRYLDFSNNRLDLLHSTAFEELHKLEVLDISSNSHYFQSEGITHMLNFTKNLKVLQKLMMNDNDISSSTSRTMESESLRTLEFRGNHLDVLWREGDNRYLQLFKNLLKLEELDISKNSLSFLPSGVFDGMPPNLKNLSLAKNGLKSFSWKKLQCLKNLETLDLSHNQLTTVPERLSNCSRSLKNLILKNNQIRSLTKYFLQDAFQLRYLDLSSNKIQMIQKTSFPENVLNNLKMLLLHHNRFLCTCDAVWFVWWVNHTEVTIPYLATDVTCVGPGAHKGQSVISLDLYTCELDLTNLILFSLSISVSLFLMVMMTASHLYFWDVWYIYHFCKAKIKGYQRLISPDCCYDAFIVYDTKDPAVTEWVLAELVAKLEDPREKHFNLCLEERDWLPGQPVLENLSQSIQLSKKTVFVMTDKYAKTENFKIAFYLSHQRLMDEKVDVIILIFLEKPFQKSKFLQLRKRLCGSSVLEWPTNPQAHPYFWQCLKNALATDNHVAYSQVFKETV
How it was run: (§1)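 Cells seeded per well (15000 TLR7, 20,000 TLR8, 25,000 TLR9); compound added over 0.05 nM–50 μM for 30 min at room temperature; agonist added (TLR7 gardiquimod 7.5 μM, TLR8 R848 15.9 μM, TLR9 ODN2006 5 nM); 22 h at 37 °C; SEAP measured; percent inhibition calculated.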

human TLR8 = molecular target: T2, human TLR8 (Homo sapiens, UniProt Q9NR97); assay: TLR8 inhibition reporter assay (HEK-Blue cells, SEAP reporter, R848 stimulation); conditions: HEK-Blue cells overexpressing human TLR8, SEAP reporter, R848 15.9 μM
T2 construct: host or cells: HEK-Blue cells (HEK293-derived reporter line)
T2 sequence (Q9NR97 27-1041): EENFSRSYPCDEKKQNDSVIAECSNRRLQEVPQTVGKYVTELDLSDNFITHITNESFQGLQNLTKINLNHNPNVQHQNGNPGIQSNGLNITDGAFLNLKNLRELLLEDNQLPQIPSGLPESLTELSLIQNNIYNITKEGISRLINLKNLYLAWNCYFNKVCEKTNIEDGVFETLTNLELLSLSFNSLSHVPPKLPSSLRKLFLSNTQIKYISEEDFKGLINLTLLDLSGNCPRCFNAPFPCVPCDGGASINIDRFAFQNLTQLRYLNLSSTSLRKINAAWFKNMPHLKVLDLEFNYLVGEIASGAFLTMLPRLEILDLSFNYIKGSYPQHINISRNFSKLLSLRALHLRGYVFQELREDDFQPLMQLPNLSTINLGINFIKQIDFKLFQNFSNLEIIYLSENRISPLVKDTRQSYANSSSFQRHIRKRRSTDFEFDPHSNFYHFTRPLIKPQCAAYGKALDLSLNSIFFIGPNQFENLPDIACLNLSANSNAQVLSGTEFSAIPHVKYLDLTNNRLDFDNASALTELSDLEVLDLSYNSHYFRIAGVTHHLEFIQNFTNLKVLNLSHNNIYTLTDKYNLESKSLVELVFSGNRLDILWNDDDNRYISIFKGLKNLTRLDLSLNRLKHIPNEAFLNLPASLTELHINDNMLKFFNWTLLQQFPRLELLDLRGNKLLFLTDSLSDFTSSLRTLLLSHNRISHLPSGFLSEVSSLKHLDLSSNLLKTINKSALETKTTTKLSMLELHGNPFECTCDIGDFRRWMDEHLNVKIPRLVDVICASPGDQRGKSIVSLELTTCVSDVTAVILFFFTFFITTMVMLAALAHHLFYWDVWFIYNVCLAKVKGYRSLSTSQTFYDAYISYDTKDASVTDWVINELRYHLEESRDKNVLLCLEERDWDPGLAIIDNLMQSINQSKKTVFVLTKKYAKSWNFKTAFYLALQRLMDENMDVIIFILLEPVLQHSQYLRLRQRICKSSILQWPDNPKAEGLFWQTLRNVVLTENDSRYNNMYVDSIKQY
How it was run: as §1

human TLR9 = molecular target: T3, human TLR9 (Homo sapiens, UniProt Q9NR96); assay: TLR9 inhibition reporter assay (HEK-Blue cells, SEAP reporter, ODN2006 stimulation); conditions: HEK-Blue cells overexpressing human TLR9, SEAP reporter, ODN2006 5 nM
T3 construct: host or cells: HEK-Blue cells (HEK293-derived reporter line)
T3 sequence (Q9NR96 26-1032): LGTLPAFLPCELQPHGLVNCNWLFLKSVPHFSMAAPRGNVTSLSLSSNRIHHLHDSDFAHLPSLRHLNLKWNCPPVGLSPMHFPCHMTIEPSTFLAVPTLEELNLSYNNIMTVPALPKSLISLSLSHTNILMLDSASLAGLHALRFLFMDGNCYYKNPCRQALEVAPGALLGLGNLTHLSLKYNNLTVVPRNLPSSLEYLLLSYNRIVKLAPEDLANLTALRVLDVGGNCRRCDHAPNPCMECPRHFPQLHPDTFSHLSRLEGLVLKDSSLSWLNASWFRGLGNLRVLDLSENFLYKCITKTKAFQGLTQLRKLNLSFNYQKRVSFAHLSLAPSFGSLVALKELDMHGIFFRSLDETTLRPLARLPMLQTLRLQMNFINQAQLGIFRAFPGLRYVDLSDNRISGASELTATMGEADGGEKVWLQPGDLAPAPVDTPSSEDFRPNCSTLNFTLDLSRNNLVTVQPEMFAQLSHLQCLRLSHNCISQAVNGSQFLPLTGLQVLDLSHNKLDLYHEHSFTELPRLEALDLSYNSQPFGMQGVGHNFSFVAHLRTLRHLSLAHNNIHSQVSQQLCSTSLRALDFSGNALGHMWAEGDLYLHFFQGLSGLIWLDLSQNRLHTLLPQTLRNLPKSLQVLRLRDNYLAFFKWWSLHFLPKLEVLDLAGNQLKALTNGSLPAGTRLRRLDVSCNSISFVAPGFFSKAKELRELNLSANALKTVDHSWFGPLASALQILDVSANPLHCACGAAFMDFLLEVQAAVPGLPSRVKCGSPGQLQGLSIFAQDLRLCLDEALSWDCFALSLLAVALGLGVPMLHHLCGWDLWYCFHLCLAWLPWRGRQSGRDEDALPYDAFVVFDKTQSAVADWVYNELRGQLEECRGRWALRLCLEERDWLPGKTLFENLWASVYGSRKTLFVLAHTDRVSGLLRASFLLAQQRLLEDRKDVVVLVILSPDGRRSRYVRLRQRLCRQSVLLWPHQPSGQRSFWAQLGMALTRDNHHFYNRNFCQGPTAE
How it was run: as §1

Compound	pIC50 (human TLR7)	pIC50 (human TLR8)	pIC50 (human TLR9)
CC(C)c1c(-c2ccc3nccn3c2)[nH]c2ccc(C3CCN(C)CC3)cc12 [Example 947, 6-(3-isopropyl-5-(1-methylpiperidin-4-yl)-1H-indol-2-yl)imidazo[1,2-a]pyridine]	> 7.00	> 7.00	6.00 to 7.00
CC(C)c1c(-c2ccc3nccn3c2)[nH]c2ccc(C3CCN(C(=O)[C@@H]4CCCNC4)CC3)cc12 [Example 639, (R)-(4-(2-(imidazo[1,2-a]pyridin-6-yl)-3-isopropyl-1H-indol-5-yl)piperidin-1-yl)(piperidin-3-yl)methanone]	> 7.00	6.00 to 7.00	6.00 to 7.00
CC(C)c1c(-c2ccnc3[nH]ncc23)[nH]c2ccc(C3CCNCC3F)cc12 (stereo not drawn) [Example 171, 4-(5-(3-fluoropiperidin-4-yl)-3-isopropyl-1H-indol-2-yl)-1H-pyrazolo[3,4-b]pyridine]	> 7.00	> 7.00	4.30 to 6.00
Cc1cc(-c2[nH]c3ccc(C4CCN(C5COC5)CC4)cc3c2C(C)C)cc2ccnn12 [Example 720, 5-(3-isopropyl-5-(1-(oxetan-3-yl)piperidin-4-yl)-1H-indol-2-yl)-7-methylpyrazolo[1,5-a]pyridine]	> 7.00	> 7.00	4.30 to 6.00
Cc1cc2cc(-c3[nH]c4ccc(C5CCN(CC(=O)N(C)C)CC5)cc4c3C(C)C)cc(C)n2n1 [Example 420, 2-(4-(2-(2,7-dimethylpyrazolo[1,5-a]pyridin-5-yl)-3-isopropyl-1H-indol-5-yl)piperidin-1-yl)-N,N-dimethylacetamide]	> 7.00	> 7.00	4.30 to 6.00
CC(C)c1c(-c2cnc3[nH]ccc3c2)[nH]c2ccc(C3CCN(C(=O)CN(C)C)CC3)cc12 [Example 563, 2-(dimethylamino)-1-(4-(3-isopropyl-2-(1H-pyrrolo[2,3-b]pyridin-5-yl)-1H-indol-5-yl)piperidin-1-yl)ethan-1-one]	6.00 to 7.00	4.30 to 6.00	4.30 to 6.00
CNC(=O)CN1CCC(c2ccc3[nH]c(-c4cn5ccnc5c(Cl)c4C)c(C(C)C)c3c2)CC1 [Example 414, 2-(4-(2-(8-chloro-7-methylimidazo[1,2-a]pyridin-6-yl)-3-isopropyl-1H-indol-5-yl)piperidin-1-yl)-N-methylacetamide]	> 7.00	> 7.00	4.30 to 6.00
CNCCN1CCC(c2ccc3[nH]c(-c4ccc5c(ccn5C)c4)c(C)c3c2)CC1 [Example 672, 2-(4-(1′,3-dimethyl-1H,1′H-[2,5′-biindol]-5-yl)piperidin-1-yl)-N-methylethan-1-amine]	< 4.30	< 5.51	6.00 to 7.00
CCc1c(-c2ccnc3[nH]ncc23)[nH]c2ccc(C3CCN(Cc4csc(C(C)C)n4)CC3)cc12 [Example 859, 4-((4-(3-ethyl-2-(1H-pyrazolo[3,4-b]pyridin-4-yl)-1H-indol-5-yl)piperidin-1-yl)methyl)-2-isopropylthiazole]	6.00 to 7.00	6.00 to 7.00	4.30 to 6.00
CCc1c(-c2cnc3[nH]c(=O)[nH]c3c2)[nH]c2ccc(C3CCNCC3)cc12 [Example 180, 6-(3-ethyl-5-(piperidin-4-yl)-1H-indol-2-yl)-1,3-dihydro-2H-imidazo[4,5-b]pyridin-2-one]	4.30 to 6.00	4.30 to 6.00	4.30 to 6.00
CC(C)c1c(-c2cc(CO)c3nnnn3c2)[nH]c2ccc(C3CCN(C4COC4)CC3)cc12 [Example 738, (6-(3-isopropyl-5-(1-(oxetan-3-yl)piperidin-4-yl)-1H-indol-2-yl)tetrazolo[1,5-a]pyridin-8-yl)methanol]	> 7.00	> 7.00	4.30 to 6.00
CNC(=O)CN1CCC(c2ccc3[nH]c(-c4ccc5ncc(C#N)n5c4)c(C(C)C)c3c2)CC1 [Example 390, 2-(4-(2-(3-cyanoimidazo[1,2-a]pyridin-6-yl)-3-isopropyl-1H-indol-5-yl)piperidin-1-yl)-N-methylacetamide]	6.00 to 7.00	6.00 to 7.00	< 4.30
CC(=O)N[C@H]1CCN(CC(=O)N2CCC(c3ccc4[nH]c(-c5ccnc6[nH]ncc56)c(C(C)C)c4c3)CC2)C1 [Example 581, (S)—N-(1-(2-(4-(3-isopropyl-2-(1H-pyrazolo[3,4-b]pyridin-4-yl)-1H-indol-5-yl)piperidin-1-yl)-2-oxoethyl)pyrrolidin-3-yl)acetamide]	> 7.00	> 7.00	4.30 to 6.00
Cc1c(-c2[nH]c3ccc(C4CCNCC4)cc3c2C(C)C)cn2nnnc2c1C [Example 73, 6-(3-isopropyl-5-(piperidin-4-yl)-1H-indol-2-yl)-7,8-dimethyltetrazolo[1,5-a]pyridine]	> 7.00	> 7.00	4.30 to 6.00
Cc1cc(-c2[nH]c3ccc(C4CCN(C(=O)CN(C)C)CC4)cc3c2C(C)C)cc2[nH]c(=O)oc12 [Example 490, 5-(5-(1-(dimethylglycyl)piperidin-4-yl)-3-isopropyl-1H-indol-2-yl)-7-methylbenzo[d]oxazol-2(3H)-one]	6.00 to 7.00	6.00 to 7.00	4.30 to 6.00
